Structures are written as SMILES. pIC50, pKi: −log10 of the molar value.

Results on 20 compounds are retold here after US20060116368A1, “4-Piperidinecarboxamide modulators of vanilloid VR1 receptor” (priority 2004, published 2006).

The target in test [1] is T1, hVR1 receptors (Homo sapiens, UniProt Q8NER1).
T1 construct: expressed in transfected cells; host or cells: HEK293
Description: Human VR1 binding assay ([3H]RTX). The conditions noted are these: membranes of HEK293 cells transfected with human VR1; for h Binding % I (1 uM): inhibition of [3H]RTX binding; for pKi: [3H]RTX binding. How it is done:
Compounds of the present invention were tested for their ability to inhibit the binding of [^3H] RTX to hVR1 receptors in a [^3H] RTX binding assay as previously described (Zhang, Sui-Po. Improved ligand binding assays for vanilloid receptors. PCT Int. Appl. (2002), WO 0233411 A1 20020425 AN 2002:315209, and Grant, Elfrida R., Dubin, Adrienne E., Zhang, Sui-Po, Zivin, Robert A., Zhong, Zhong Simultaneous intracellular calcium and sodium flux imaging in human vanilloid receptor 1 (VR1)-transfected human embryonic kidney cells: a method to resolve ionic dependence of VR1-mediated cell death. J. Pharmacol. Exp. Ther., 2002, 300(1), 9-17.)
HEK293 cells were transfected with human VR1 vanilloid receptors and washed with Hank's balanced Salt Solution, dissociated with cell dissociation buffer (Sigma), and then centrifuged at 1000×g for 5 min. Cell pellets were homogenized in cold 20 mM HEPES buffer, pH 7.4, containing 5.8 mM NaCl, 320 mM sucrose, 2 mM MgCl2, 0.75 CaCl2 and 5 mM KCl and centrifuged at 1000×g for 15 min. The resultant supernate was then centrifuged at 40000×g for 15 min. The pelleted membranes were stored in a freezer at −80° C.
Approximately 120 μg protein/ml from membranes were incubated with indicated concentrations of [^3H]RTX in 0.5 ml of the HEPES buffer (pH 7.4) containing 0.25 mg/mL fatty acid-free bovine serum albumin at 37° C. for 60 min. The reaction mixture was then cooled to 4° C., added 0.1 mg α1-acid glycoprotein to each sample and incubated at 4° C. for 15 min. The samples were centrifuged at 18500×g for 15 min. The tip of the microcentrifuge tube containing the pellet was cut off. Bound radioactivity was quantified by scintillation counting. Non-specific binding was tested in the presence of 200 nM unlabeled RTX.
Data were calculated according to the equation: % inhibition=(total binding−binding)*100/(total binding−non specific binding). Ki values were calculated using a Prism program.

Test [2] has as its target T2, Human Vanilloid Receptor 1 (Homo sapiens, UniProt Q8NER1).
T2 construct: expressed in transfected cells; host or cells: HEK 293
Description: Human VR1 functional assay using FLIPR, Protocol 1. The conditions noted are these: for inhibition at 9 µM: HEK293, 9 uM, inhibition of capsaicin (EC80)-induced calcium response, HEK 293 cells transfected with hVR1, read-out: h % I (9 uM); for pIC50: decreased capsaicin (EC80)-induced calcium response, HEK 293 hVR1, read-out: h IC50. In kind it is cell-based. In outline:
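Transfected HEK 293 cells, plated 24 h before, were dye-loaded (30 min 37 °C, 30 min RT) and read by FLIPR calcium assay. Compound added with 5 min acquisition, then capsaicin at EC80. EC50 from compound-induced calcium at 5 min; IC50 from reduced capsaicin-induced response.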

Test [3] concerns the target T2, Human Vanilloid Receptor 1. Description: Human VR1 functional assay using FLIPR, Protocol 2. The conditions noted are these: for h % I (1 uM): inhibition of capsaicin (EC80)-induced calcium response. The class given is cell-based. The protocol:
The functional activity of the test compounds was determined by measuring changes in intracellular calcium concentration using FLIPR™ Calcium-3 Assay Kit and FLIPR™ technology.
HEK 293 cells stably transfected with Human Vanilloid Receptor 1 were maintained at 37° C. and 5% CO2 in: Dulbecco's Modification of Eagle's Medium (4.5 g/L glucose, L-glutamine, sodium pyruvate), 10% FBS, 1× Penicillin-Streptomycin, 400 ug/mL G418 Sulfate. Approximately 24 hours prior to assay, 5,000 cells/well were plated onto a 384-well black clear bottom poly-D-lysine-coated assay plate with a well volume of 25 μL using Titertek Multidrop.
On the day of the assay, the medium was dumped and 50 μL of dye (bulk kit vials diluted with 200 mL buffer) was loaded using Multidrop. Plates were incubated with dye at 37° C. for 30 minutes followed by 30 minutes incubation at room temperature. Then the plates were assayed by FLIPR™ with 2 additions: 12.5 μL test compound with 5 minutes data acquisition followed by 12.5 μL capsaicin at the EC80 concentration.
The EC50 values of test compounds were calculated based on a test compound-induced calcium response at the 5-minute time point. The IC50 values of compounds were calculated based on a decreased capsaicin-induced calcium response in the presence of test compound.

Where [4] appears, read: HEK 293 stably transfected hVR1.

T1 sequence (Q8NER1 whole entry): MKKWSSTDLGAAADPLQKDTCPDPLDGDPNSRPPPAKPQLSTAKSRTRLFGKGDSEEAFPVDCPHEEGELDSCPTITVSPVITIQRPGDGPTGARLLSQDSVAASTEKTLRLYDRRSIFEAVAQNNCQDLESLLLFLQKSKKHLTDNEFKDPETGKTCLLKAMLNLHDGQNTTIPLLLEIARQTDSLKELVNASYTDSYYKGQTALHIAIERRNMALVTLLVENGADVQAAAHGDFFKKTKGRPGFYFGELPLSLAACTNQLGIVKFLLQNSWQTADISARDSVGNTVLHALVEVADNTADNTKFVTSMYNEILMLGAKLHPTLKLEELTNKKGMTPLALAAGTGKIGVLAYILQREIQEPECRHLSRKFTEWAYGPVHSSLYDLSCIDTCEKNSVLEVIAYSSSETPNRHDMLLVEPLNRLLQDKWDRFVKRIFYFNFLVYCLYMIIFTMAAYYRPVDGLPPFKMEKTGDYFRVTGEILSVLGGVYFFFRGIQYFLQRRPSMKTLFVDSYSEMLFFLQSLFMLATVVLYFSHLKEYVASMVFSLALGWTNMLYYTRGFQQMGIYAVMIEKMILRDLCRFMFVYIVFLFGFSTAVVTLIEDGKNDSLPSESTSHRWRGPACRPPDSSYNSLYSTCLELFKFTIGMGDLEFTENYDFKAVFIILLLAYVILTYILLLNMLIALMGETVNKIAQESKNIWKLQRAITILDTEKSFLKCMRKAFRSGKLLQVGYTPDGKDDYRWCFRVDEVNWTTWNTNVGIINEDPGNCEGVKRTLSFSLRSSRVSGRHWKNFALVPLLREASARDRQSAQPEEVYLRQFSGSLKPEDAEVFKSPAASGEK
T2 sequence (Q8NER1 whole entry): as above

As for `CC(=O)c1cc2c(cc1NC(=O)C1CCN(c3cccc(C(F)(F)F)c3)CC1)OCO2` [Example 33, 1-(3-Trifluoromethyl-phenyl)-piperidine-4-carboxylic acid (6-acetyl-benzo[1,3]dioxol-5-yl)-amide], in test [1], the “h Binding % I (1 uM)” value worked out at 12.8%. Moreover, in test [2], the inhibition at 9 µM was determined as 12.6%.
As for `O=C1COc2ccc(NC(=O)C3CCN(c4cccc(C(F)(F)F)c4)CC3)cc2N1` [Example 34, 1-(3-Trifluoromethyl-phenyl)-piperidine-4-carboxylic acid (3-oxo-3,4-dihydro-2H-benzo[1,4]oxazin-6-yl)-amide], the negative logarithm of the Ki (pKi) (usually the negative decadic logarithm of the Ki, by convention in mol/L) in test [1] is 7.19. In test [2], the inhibition at 9 µM was determined as 94.5% and the pIC50 (usually the negative decadic logarithm of the IC50, by convention in mol/L) is 6.68.
As to `O=C(Nc1cnc2ccccc2c1)C1CCN(c2ccccc2Br)CC1` [Example 53, 1-(2-Bromo-phenyl)-piperidine-4-carboxylic acid quinolin-3-ylamide], in test [1], the “h Binding % I (1 uM)” value was 47.3%. In addition, in test [2], the inhibition at 9 µM stood at 104% and the pIC50 is 6.80.
`Cc1cccc(N2CCC(C(=O)Nc3ccc4c(c3)NC(=O)CO4)CC2)c1` [Example 140, 1-m-Tolyl-piperidine-4-carboxylic acid (3-oxo-3,4-dihydro-2H-benzo[1,4]oxazin-6-yl)-amide] gave a pKi in test [1] of 6.65. In test [2], the inhibition at 9 µM worked out at 84% and the pIC50 is 6.31.
The matching figures for `Cc1ccccc1N1CCC(C(=O)Nc2ccc3c(c2)NC(=O)CO3)CC1` [Example 141, 1-o-Tolyl-piperidine-4-carboxylic acid (3-oxo-3,4-dihydro-2H-benzo[1,4]oxazin-6-yl)-amide]: 7.21, 100% and 6.82.
The matching figures for `CCc1ccccc1N1CCC(C(=O)Nc2ccc3c(c2)NC(=O)CO3)CC1` [Example 142, 1-(2-Ethyl-phenyl)-piperidine-4-carboxylic acid (3-oxo-3,4-dihydro-2H-benzo[1,4]oxazin-6-yl)-amide]: 6.90, 96.3% and 6.82.
The matching figures for `CC(C)c1ccccc1N1CCC(C(=O)Nc2ccc3c(c2)NC(=O)CO3)CC1` [Example 143, 1-(2-Isopropyl-phenyl)-piperidine-4-carboxylic acid (3-oxo-3,4-dihydro-2H-benzo[1,4]oxazin-6-yl)-amide]: 7.11, 101% and 6.74.
Consider `Cc1ccc(N2CCC(C(=O)Nc3ccc4c(c3)NC(=O)CO4)CC2)cc1C` [Example 144, 1-(3,4-Dimethyl-phenyl)-piperidine-4-carboxylic acid (3-oxo-3,4-dihydro-2H-benzo[1,4]oxazin-6-yl)-amide], for which the pKi in test [1] is 6.50. Moreover, in test [2], the inhibition at 9 µM was found to be 77% and the pIC50 is 6.42.
`Cc1cccc(N2CCC(C(=O)Nc3ccc4c(c3)NC(=O)CO4)CC2)c1C` [Example 145, 1-(2,3-Dimethyl-phenyl)-piperidine-4-carboxylic acid (3-oxo-3,4-dihydro-2H-benzo[1,4]oxazin-6-yl)-amide]: the pKi in test [1] is 7.57. For the same compound, in test [2], the inhibition at 9 µM was determined as 99.5% and the pIC50 was 7.22.
The matching figures for `CC(C)(C)c1ccc(N2CCC(C(=O)Nc3ccc4c(c3)NC(=O)CO4)CC2)cc1` [Example 146, 1-(4-tert-Butyl-phenyl)-piperidine-4-carboxylic acid (3-oxo-3,4-dihydro-2H-benzo[1,4]oxazin-6-yl)-amide]: 6.88, 112% and 7.05.
The matching figures for `O=C1COc2ccc(NC(=O)C3CCN(c4cccc(F)c4)CC3)cc2N1` [Example 147, 1-(3-Fluoro-phenyl)-piperidine-4-carboxylic acid (3-oxo-3,4-dihydro-2H-benzo[1,4]oxazin-6-yl)-amide]: 7.08, 90% and 6.28.
`O=C1COc2ccc(NC(=O)C3CCN(c4cccc(Cl)c4)CC3)cc2N1` [Example 148, 1-(3-Chloro-phenyl)-piperidine-4-carboxylic acid (3-oxo-3,4-dihydro-2H-benzo[1,4]oxazin-6-yl)-amide] showed a pKi in test [1] of 7.47. Further, in test [2], the inhibition at 9 µM is 88.7% and the pIC50 is 6.72.
`O=C1COc2ccc(NC(=O)C3CCN(c4ccccc4F)CC3)cc2N1` [Example 151, 1-(2-Fluoro-phenyl)-piperidine-4-carboxylic acid (3-oxo-3,4-dihydro-2H-benzo[1,4]oxazin-6-yl)-amide] gave a pKi in test [1] of 5.83. Moreover, in test [2], the inhibition at 9 µM amounted to 62.3% and the pIC50 is 6.17.
The matching figures for `O=C1COc2ccc(NC(=O)C3CCN(c4ccccc4Cl)CC3)cc2N1` [Example 152, 1-(2-Chloro-phenyl)-piperidine-4-carboxylic acid (3-oxo-3,4-dihydro-2H-benzo[1,4]oxazin-6-yl)-amide]: 7.03, 90.7% and 6.66.
In turn, `O=C1COc2ccc(NC(=O)C3CCN(c4ccccc4Br)CC3)cc2N1` [Example 153, 1-(2-Bromo-phenyl)-piperidine-4-carboxylic acid (3-oxo-3,4-dihydro-2H-benzo[1,4]oxazin-6-yl)-amide] had a pKi in test [1] of 7.15. Further, in test [2], the inhibition at 9 µM was found to be 91.7% and the pIC50 was 6.80.
The matching figures for `O=C1COc2ccc(NC(=O)C3CCN(c4cc(F)cc(F)c4)CC3)cc2N1` [Example 154, 1-(3,5-Difluoro-phenyl)-piperidine-4-carboxylic acid (3-oxo-3,4-dihydro-2H-benzo[1,4]oxazin-6-yl)-amide]: 6.86, 96% and 6.43.
In turn, `O=C1COc2ccc(NC(=O)C3CCN(c4ccc(F)c(F)c4)CC3)cc2N1` [Example 155, 1-(3,4-Difluoro-phenyl)-piperidine-4-carboxylic acid (3-oxo-3,4-dihydro-2H-benzo[1,4]oxazin-6-yl)-amide] showed a pKi in test [1] of 7.25. Besides, in test [2], the inhibition at 9 µM turned out to be 89% and the pIC50 is 6.07.
In the case of `O=C1COc2cccc(NC(=O)C3CCN(c4cc(F)c(F)c(F)c4)CC3)c2N1` [Example 169, 1-(3,4,5-Trifluoro-phenyl)-piperidine-4-carboxylic acid (3-oxo-3,4-dihydro-2H-benzo[1,4]oxazin-5-yl)-amide], the “h % I (1 uM)” value in test [3] (setting [4]) was determined as 9%.
Regarding `O=C1COc2cc(NC(=O)C3CCN(c4cc(F)c(F)c(F)c4)CC3)ccc2N1` [Example 170, 1-(3,4,5-Trifluoro-phenyl)-piperidine-4-carboxylic acid (3-oxo-3,4-dihydro-2H-benzo[1,4]oxazin-7-yl)-amide], in test [3] (setting [4]), the “h % I (1 uM)” value was 55%. The pIC50 in test [3] (decreased capsaicin (EC80)-induced calcium response, HEK 293 stably transfected hVR1, read-out: h IC50) was 6.13.
In the case of `O=C1COc2c(cccc2NC(=O)C2CCN(c3cc(F)c(F)c(F)c3)CC2)N1` [Example 171, 1-(3,4,5-Trifluoro-phenyl)-piperidine-4-carboxylic acid (3-oxo-3,4-dihydro-2H-benzo[1,4]oxazin-8-yl)-amide], in test [3] (1.2 uM, test compound-induced calcium response (agonist mode), HEK 293 stably transfected hVR1), the “% E80 Capsaicin (1.2 uM)” value is reported as 17%.
